The text below walks through data of patent US20160185745A1, “ANALOGS OF VINAXANTHONE AND XANTHOFULVIN, METHODS OF SYNTHESIS, AND METHODS OF TREATMENTS THEREOF” (BOARD OF REGENTS, THE UNIVERSITY OF TEXAS SYSTEM, priority 2013, published 2016).

Data set [1] relates to GFP-labeled cholinergic neurons. The data set can be described thus: outgrowth of GFP-labeled cholinergic neurons in vivo in C. elegans. The note with it: for outgrowth activity of GFP-labeled cholinergic neurons: control 0.2% DMSO in M9 buffer, compared with dibutyryl cAMP. As to the method: (§1) Control: 0.2% DMSO in M9 buffer. […] Additionally, several analogs were prepared and their biological activity was measured.

The conditions of data set [2]: at concentrations >1000 times the effective dose; cited from earlier work.
The target in a further data set is T1, semaphorin 3A (Sema3A) (Homo sapiens, UniProt Q14563).
T1 sequence (Q14563 21-771): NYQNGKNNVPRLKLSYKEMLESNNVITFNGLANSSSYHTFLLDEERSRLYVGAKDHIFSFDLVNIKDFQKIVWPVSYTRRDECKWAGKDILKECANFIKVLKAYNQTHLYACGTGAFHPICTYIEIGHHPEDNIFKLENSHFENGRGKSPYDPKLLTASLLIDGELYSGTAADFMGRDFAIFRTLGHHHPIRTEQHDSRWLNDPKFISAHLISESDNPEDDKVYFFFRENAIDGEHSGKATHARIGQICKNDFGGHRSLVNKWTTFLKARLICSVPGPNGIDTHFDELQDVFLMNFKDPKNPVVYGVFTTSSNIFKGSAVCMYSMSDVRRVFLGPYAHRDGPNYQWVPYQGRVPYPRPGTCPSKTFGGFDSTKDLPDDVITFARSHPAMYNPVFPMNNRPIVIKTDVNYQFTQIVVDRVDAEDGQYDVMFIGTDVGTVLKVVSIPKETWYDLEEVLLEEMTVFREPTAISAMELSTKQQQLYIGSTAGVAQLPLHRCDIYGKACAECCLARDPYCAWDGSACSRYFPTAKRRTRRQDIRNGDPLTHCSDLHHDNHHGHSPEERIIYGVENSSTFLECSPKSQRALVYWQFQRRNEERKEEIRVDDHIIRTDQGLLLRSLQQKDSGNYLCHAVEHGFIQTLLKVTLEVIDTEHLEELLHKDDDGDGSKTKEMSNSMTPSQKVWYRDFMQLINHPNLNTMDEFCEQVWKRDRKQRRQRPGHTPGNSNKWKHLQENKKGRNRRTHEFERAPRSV
The note with it: read-out: Sema3A inhibitory activity IC50 (converted); cited from earlier work.

A further data set has as its target T2, SUCNR1 (Homo sapiens, UniProt Q9BXA5).
T2 sequence (Q9BXA5 1-334): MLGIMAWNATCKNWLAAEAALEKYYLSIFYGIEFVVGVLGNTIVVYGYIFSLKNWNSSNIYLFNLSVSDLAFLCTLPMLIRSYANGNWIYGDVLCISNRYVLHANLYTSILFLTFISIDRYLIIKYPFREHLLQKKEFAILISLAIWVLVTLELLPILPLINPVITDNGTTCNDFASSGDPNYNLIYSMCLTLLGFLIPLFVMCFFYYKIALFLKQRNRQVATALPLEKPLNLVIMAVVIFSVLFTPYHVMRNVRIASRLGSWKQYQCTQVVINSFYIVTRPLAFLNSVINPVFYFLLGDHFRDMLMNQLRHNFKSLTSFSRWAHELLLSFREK
Description: modulation of SUCNR1 when administered with sodium succinate. The format is cell-based. The note with it: compared to sodium succinate alone. As for the experimental part: The values are compared to 100% activation by sodium succinate.
as §1

As to `CCCC(=O)Nc1ncnc2c1ncn2[C@@H]1O[C@@H]2COP(=O)(O)O[C@H]2[C@H]1OC(=O)CCC` [dibutyryl cAMP, reference compound], the “promotes branching in % of animals” value in data set [1] (at 2 mM) was found to be 36%.
As to `CC(=O)c1cc2c(=O)c3c(C(=O)O)c(O)c(O)cc3oc2c(C(C)=O)c1-c1coc2cc(O)c(O)c(C(=O)O)c2c1=O` [vinaxanthone, 5,7-diacetyl-6-(5-carboxy-6,7-dihydroxy-4-oxo-4H-chromen-3-yl)-2,3-dihydroxy-9-oxo-9H-xanthene-1-carboxylic acid], the cytotoxicity effects entry in data set [2] is reported as “no observable cytotoxicity effects”. Also, the IC50 at semaphorin 3A (Sema3A) was 173 nM. At SUCNR1, the Dose ratio was determined as 0.33 and the efficacy value was found to be 230%. Moreover, the “outgrowth activity of GFP-labeled cholinergic neurons” value in data set [1] is on record as “comparable to dibutyryl cAMP”.
As for `CC(=O)c1c(C)c(/C(O)=C2\COc3cc(O)c(O)c(C(=O)O)c3C2=O)cc2c(=O)c3c(C(=O)O)c(O)c(O)cc3oc12` [xanthofulvin], on SUCNR1, the Dose ratio is 0.32 and the efficacy value amounted to 222%. In data set [1], the “outgrowth activity of GFP-labeled cholinergic neurons” value is listed as “comparable to dibutyryl cAMP”.

For orientation: IC50 means the concentration that gives 50% inhibition.
